Values of other authors in US11260023B2, “Topical compositions containing rofecoxib and methods of making and using the same” (BRIORI BIOTECH, LLC, priority 2020, dated 2022).

Columns and labels:
[1] = of the solvent; cited from earlier work
[2] = after 24 hours after 25 hours; cited from earlier work

Compound: CC(O)CC(C)(C)O (centres unmarked) [2-Methyl-pentane-2,4-diol, 2-methylpentane-2,4-diol]
- logP [1]: 0.3
- Δd (dispersion) [1]: 16.4 MPa^1/2
- Δh (hydrogen bonding) [1]: 20.6 MPa^1/2
- Δp (polar) [1]: 8 MPa^1/2

Compound: CC(C)=O [Acetone, acetone]
- logP [1]: −0.1
- Δd (dispersion) [1]: 15.5 MPa^1/2
- Δh (hydrogen bonding) [1]: 7 MPa^1/2
- Δp (polar) [1]: 10.4 MPa^1/2

Compound: OCc1ccccc1 [Benzyl Alcohol, benzyl alcohol]
- Δd (dispersion) [1]: 18.4 MPa^1/2
- Δh (hydrogen bonding) [1]: 13.7 MPa^1/2
- Δp (polar) [1]: 6.3 MPa^1/2

Compound: CCOC(=O)CCCCCCCCC(=O)OCC [Diethyl Sebacate, diethyl sebacate]
- logP [1]: 3.5
- Δd (dispersion) [1]: 16 MPa^1/2
- Δh (hydrogen bonding) [1]: 4.7 MPa^1/2
- Δp (polar) [1]: 4 MPa^1/2

Compound: CCOCCOCCO [Diethylene Glycol Monoethyl Ether, diethylene glycol monoethyl ether]
- logP [1]: −0.5
- Δd (dispersion) [1]: 16.2 MPa^1/2
- Δh (hydrogen bonding) [1]: 14.3 MPa^1/2
- Δp (polar) [1]: 9.2 MPa^1/2

Compound: CC(C)OC(=O)CCCCC(=O)OC(C)C [Diisopropyl Adipate, diisopropyl adipate]
- logP [1]: 2.2

Compound: CO[C@H]1CO[C@H]2[C@@H]1OC[C@H]2OC [Dimethyl Isosorbide, isosorbide dimethyl ether]
- logP [1]: −0.6
- Δd (dispersion) [1]: 17.6 MPa^1/2
- Δh (hydrogen bonding) [1]: 7.5 MPa^1/2
- Δp (polar) [1]: 7.1 MPa^1/2

Compound: C[S+](C)[O-] [Dimethyl Sulfoxide, dimethyl sulfoxide]
- logP [1]: −0.6
- Δd (dispersion) [1]: 18.4 MPa^1/2
- Δh (hydrogen bonding) [1]: 10.2 MPa^1/2
- Δp (polar) [1]: 16.4 MPa^1/2

Compound: CCOC(C)=O [Ethyl Acetate, ethyl acetate]
- logP [1]: 0.76
- Δd (dispersion) [1]: 15.8 MPa^1/2
- Δh (hydrogen bonding) [1]: 7.2 MPa^1/2
- Δp (polar) [1]: 5.3 MPa^1/2

Compound: CCCCCCCCCCCCCC(=O)OC(C)C [Isopropyl tetradecanoate, isopropyl tetradecanoate]
- Δd (dispersion) [1]: 16.2 MPa^1/2
- Δh (hydrogen bonding) [1]: 3.7 MPa^1/2
- Δp (polar) [1]: 2.4 MPa^1/2

Compound: CN1CCCC1=O [N-Methyl-2-Pyrrolidone, N-methyl-2-pyrrolidone]
- logP [1]: 0.5
- Δd (dispersion) [1]: 18 MPa^1/2
- Δh (hydrogen bonding) [1]: 7.2 MPa^1/2
- Δp (polar) [1]: 12.3 MPa^1/2

Compound: CC1COC(=O)O1 (centres unmarked) [Propylene Carbonate, propylene carbonate]
- logP [1]: −0.4
- Δd (dispersion) [1]: 20 MPa^1/2
- Δh (hydrogen bonding) [1]: 4.1 MPa^1/2
- Δp (polar) [1]: 18 MPa^1/2

Compound: CC(=O)OCC(C)OC(C)=O (centres unmarked) [Propylene Glycol Diacetate, propylene glycol diacetate]
- logP [1]: 0.7

Compound: CC(O)CO (centres unmarked) [Propylene Glycol, MP, propylene glycol]
- logP [1]: −0.9
- Δd (dispersion) [1]: 16.8 MPa^1/2
- Δh (hydrogen bonding) [1]: 23.3 MPa^1/2
- Δp (polar) [1]: 9.4 MPa^1/2

Compound: CC1=CCC(C(C)(C)O)CC1 (stereo not drawn) [alpha-Terpineol 95.0+ %, alpha-terpineol]
- logP [1]: 1.8
- Δd (dispersion) [1]: 17.1 MPa^1/2
- Δh (hydrogen bonding) [1]: 7.6 MPa^1/2
- Δp (polar) [1]: 3.6 MPa^1/2

Compound: O=C(O)Cc1ccccc1Nc1c(Cl)cccc1Cl [diclofenac]
- amount of diclofenac that penetrates into the blood [2]: 0.067 mg
